Results taken from ChEMBL document CHEMBL4418493, “N-hydroxyformamide compounds and compositions comprising them for use as BMP1, TLL1 and/or TLL2 inhibitors” (2018).

Columns and labels:
[1] = Reduction in PICP levels in human cardiac fibroblasts incubated for 24 to 48 hrs by ELISA; assay type: functional
[2] = Reduction in mature collagen deposition levels in human cardiac fibroblasts incubated for 24 to 48 hrs by immunostaining based assay; assay type: functional
[3] = Drug metabolism in heparinized pooled human plasma at pH 7.5 assessed as formation of (S)-2-(2-ethoxy-4-(5-((((R)-2-((R)-1-(N-hydroxyformamido)propyl)heptanamido)methyl) carbamoyl)furan-2-yl)benzamido)succinic acid at 100 to 2000 ng/ml incubated up to 4 or 24 hrs by LC-MS/MS analysis; assay type: ADME, cell-free; conditions: pH 7.5, 24 h
[4] = Drug metabolism in heparinized pooled human plasma at pH 7.5 assessed as conversion to active compound at 100 to 2000 ng/ml incubated for 4 by LC-MS/MS analysis; assay type: ADME, cell-free
[5] = Stability in pH 7.96 assessed as compound purity level at 1 mg/ml heated to 40 degC and measured at 200 hrs by LC/MS analsysis; assay type: physicochemical; conditions: buffer, read-out: Stability
[6] = Drug metabolism in heparinized pooled human plasma at pH 7.5 assessed as formation of (S)-2-(2-(carboxymethoxy)-4-(5-((((R)-2-((R)-1-(N-hydroxyformamido)propyl)heptanamido)methyl)carbamoyl)furan-2-yl)benzamido)succinic acid at 100 to 2000 ng/ml incubated up to 4 or 24 hrs by LC-MS/MS analysis; assay type: ADME, cell-free; conditions: pH 7.5, 24 h
[7] = Drug metabolism in heparinized pooled human plasma at pH 7.5 assessed as formation of (3-ethoxy-5-(5-((((R)-2-((R)-1-(N-hydroxyformamido)propyl)heptanamido)methyl)carbamoyl) furan-2-yl)phenyl)phosphonic acid at 100 to 2000 ng/ml incubated up to 4 or 24 hrs by LC-MS/MS analysis; assay type: ADME, cell-free; conditions: pH 7.5, 24 h
[8] = biological target: T1, Bone morphogenetic protein 1 (Homo sapiens, UniProt P13497); experiment: Inhibition of C-terminal FLAG-6x-His epitope tagged and N-terminal human RAGE signal sequence tagged human BMP1 (121 to 721 amino acids) expressed in CHO-E1a cells pre-incubated for 10 mins before promyostatin peptide substrate addition and measured after 60 mins using 0.5 nM BMP1 by FRET based assay; assay type: cell-based
T1 sequence (P13497 whole entry): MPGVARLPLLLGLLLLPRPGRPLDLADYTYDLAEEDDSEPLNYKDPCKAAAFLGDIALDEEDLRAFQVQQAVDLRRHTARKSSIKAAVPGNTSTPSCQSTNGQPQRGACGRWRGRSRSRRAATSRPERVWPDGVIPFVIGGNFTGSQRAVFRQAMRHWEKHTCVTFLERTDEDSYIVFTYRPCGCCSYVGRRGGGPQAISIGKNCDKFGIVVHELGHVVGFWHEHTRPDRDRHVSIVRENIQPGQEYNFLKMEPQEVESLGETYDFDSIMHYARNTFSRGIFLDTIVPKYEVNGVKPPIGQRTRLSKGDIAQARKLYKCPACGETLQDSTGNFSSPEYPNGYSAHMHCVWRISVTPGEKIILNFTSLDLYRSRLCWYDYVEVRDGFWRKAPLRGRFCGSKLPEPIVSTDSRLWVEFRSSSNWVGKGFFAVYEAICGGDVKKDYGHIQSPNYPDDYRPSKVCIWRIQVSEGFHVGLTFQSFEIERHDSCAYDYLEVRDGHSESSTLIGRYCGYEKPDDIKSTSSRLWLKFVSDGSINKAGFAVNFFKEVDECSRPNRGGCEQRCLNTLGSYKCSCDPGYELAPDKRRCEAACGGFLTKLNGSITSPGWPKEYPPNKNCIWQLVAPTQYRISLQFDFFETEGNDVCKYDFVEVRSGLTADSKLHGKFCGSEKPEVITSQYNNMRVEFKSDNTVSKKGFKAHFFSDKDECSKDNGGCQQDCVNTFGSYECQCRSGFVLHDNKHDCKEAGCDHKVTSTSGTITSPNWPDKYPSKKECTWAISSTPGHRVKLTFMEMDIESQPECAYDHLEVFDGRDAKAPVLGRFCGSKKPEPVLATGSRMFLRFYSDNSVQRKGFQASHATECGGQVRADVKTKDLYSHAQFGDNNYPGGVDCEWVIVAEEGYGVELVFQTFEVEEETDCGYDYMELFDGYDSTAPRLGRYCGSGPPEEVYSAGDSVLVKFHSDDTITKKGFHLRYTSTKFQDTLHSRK

Tolloid-like protein 1 = Tolloid-like protein 1 (Homo sapiens, UniProt O43897, I156V/N221S/V284A); experiment: Inhibition of recombinant human TLL1 I156V/N221S/V284A mutant expressed in CHOE1A cells pre-incubated for 10 mins before promyostatin peptide substrate addition and measured after 60 mins by FRET based assay; assay type: cell-based
Tolloid-like protein 2 = biological target: T2, Tolloid-like protein 2 (Homo sapiens, UniProt Q9Y6L7); experiment: Inhibition of C-terminal Avi-6x-His epitope tagged and N-terminal human RAGE signal sequence tagged recombinant human TLL2 (26 to 1015 amino acids) expressed in CHOE1A cells incubated for 60 mins with promyostatin peptide substrate by FRET based assay; assay type: cell-based
T2 sequence (Q9Y6L7 whole entry): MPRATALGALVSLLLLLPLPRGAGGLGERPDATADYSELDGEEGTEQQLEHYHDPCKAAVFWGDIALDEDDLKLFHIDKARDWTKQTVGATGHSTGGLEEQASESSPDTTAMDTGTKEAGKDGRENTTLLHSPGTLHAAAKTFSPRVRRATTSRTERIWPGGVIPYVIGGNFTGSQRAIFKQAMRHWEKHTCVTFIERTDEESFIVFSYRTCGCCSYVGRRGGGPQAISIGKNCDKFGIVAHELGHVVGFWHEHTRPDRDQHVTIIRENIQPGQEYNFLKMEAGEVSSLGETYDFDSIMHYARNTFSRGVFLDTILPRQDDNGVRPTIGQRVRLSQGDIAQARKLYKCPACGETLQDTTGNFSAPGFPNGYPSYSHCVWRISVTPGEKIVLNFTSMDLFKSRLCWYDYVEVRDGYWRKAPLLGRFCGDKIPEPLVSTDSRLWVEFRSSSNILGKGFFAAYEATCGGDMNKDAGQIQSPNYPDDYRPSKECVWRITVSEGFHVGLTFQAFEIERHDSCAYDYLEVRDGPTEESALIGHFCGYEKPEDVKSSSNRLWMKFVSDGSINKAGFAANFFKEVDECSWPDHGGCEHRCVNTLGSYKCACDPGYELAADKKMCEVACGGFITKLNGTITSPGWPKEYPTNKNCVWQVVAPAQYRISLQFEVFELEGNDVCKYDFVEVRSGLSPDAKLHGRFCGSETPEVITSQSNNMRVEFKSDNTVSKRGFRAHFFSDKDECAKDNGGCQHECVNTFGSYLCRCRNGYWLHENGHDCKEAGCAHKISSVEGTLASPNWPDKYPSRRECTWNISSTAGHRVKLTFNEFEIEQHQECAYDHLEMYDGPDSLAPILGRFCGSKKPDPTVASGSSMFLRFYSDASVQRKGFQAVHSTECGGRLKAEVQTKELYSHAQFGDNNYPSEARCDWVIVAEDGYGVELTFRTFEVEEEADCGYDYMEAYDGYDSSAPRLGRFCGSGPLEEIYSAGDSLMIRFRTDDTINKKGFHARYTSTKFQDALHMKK

Sequence of Tolloid-like protein 1 (O43897 148-1013 I156V/N221S/V284A limits assumed): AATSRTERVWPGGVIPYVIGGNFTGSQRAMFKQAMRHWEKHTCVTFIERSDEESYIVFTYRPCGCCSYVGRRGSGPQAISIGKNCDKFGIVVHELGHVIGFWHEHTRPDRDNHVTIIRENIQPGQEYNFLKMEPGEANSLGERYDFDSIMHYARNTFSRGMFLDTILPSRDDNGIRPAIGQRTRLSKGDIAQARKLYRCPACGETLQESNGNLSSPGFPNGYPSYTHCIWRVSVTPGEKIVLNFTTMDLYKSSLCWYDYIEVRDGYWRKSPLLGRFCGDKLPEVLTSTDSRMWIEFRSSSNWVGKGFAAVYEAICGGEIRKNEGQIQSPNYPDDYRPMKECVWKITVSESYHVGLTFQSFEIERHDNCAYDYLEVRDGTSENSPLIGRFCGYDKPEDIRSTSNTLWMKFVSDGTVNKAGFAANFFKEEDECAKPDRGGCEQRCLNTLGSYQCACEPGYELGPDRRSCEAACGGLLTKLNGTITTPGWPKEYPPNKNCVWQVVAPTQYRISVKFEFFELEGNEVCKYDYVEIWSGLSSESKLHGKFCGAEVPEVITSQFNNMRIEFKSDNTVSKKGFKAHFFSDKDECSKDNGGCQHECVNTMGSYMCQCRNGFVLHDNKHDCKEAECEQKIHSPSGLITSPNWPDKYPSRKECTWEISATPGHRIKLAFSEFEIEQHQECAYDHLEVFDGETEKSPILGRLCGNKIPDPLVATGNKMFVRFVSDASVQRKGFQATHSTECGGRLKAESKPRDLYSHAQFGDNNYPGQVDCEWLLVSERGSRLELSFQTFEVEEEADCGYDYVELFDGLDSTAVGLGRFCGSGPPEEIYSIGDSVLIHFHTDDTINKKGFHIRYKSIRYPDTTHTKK

| Drug metabolism [4] | remaining at 200 h, 1 mg/ml [5] | Drug metabolism [6] | Drug metabolism [7] | Structure (SMILES) | IC50 [1] | also measured |
| --- | --- | --- | --- | --- | --- | --- |
| > 10% | < 80% | – | – | CCCCC[C@@H](C(=O)NCNC(=O)c1ccc(-c2ccc(C(=O)N[C@@H](CC(=O)O)C(=O)O)c(OCC)c2)o1)[C@@H](CC)N(C=O)OC(=O)C(C)(C)C | < 3980 nM | IC50 [2]: < 1000 nM; Drug metabolism [3]: Metabolite_Detected |
| > 10% | < 80% | Metabolite_Detected | – | CCCCC[C@@H](C(=O)NCNC(=O)c1ccc(-c2ccc(C(=O)N[C@@H](CC(=O)O)C(=O)O)c(OCC(=O)O)c2)o1)[C@@H](CC)N(C=O)OC(=O)c1ccccc1O | – | – |
| > 10% | < 80% | – | Metabolite_Detected | CCCCC[C@@H](C(=O)NCNC(=O)c1ccc(-c2cc(OCC)cc(P(=O)(O)O)c2)o1)[C@@H](CC)N(C=O)OCc1oc(=O)oc1C | < 3980 nM | – |
| > 10% | < 80% | Metabolite_Detected | – | CCCCC[C@@H](C(=O)NCNC(=O)c1ccc(-c2ccc(C(=O)N[C@@H](CC(=O)O)C(=O)O)c(OCC(=O)O)c2)o1)[C@@H](CC)N(C=O)OC(=O)OC(C)(C)C | < 3980 nM | – |
| – | – | – | Metabolite_Detected | CCCCC[C@@H](C(=O)NCNC(=O)c1ccc(-c2cc(OCC)cc(P(=O)(O)O)c2)o1)[C@@H](CC)N(C=O)OC(=O)c1ccc2c(c1)OCCO2 | < 3980 nM | IC50 [2]: < 1000 nM |
| > 10% | < 80% | – | Metabolite_Detected | CCCCC[C@@H](C(=O)NCNC(=O)c1ccc(-c2cc(OCC)cc(P(=O)(O)O)c2)o1)[C@@H](CC)N(C=O)OCOC(=O)C(C)(C)C | – | – |
| > 10% | – | – | Metabolite_Detected | CCCCC[C@@H](C(=O)NCNC(=O)c1ccc(-c2cc(OCC)cc(P(=O)(O)O)c2)o1)[C@@H](CC)N(C=O)OCOP(=O)(O)O | – | – |
| > 10% | < 80% | Metabolite_Detected | – | CCCCC[C@@H](C(=O)NCNC(=O)c1ccc(-c2ccc(C(=O)N[C@@H](CC(=O)O)C(=O)O)c(OCC(=O)O)c2)o1)[C@@H](CC)N(C=O)OC(=O)c1ccccc1OC(C)=O | < 3980 nM | – |
| > 10% | < 80% | Metabolite_Detected | – | CCCCC[C@@H](C(=O)NCNC(=O)c1ccc(-c2ccc(C(=O)N[C@@H](CC(=O)O)C(=O)O)c(OCC(=O)O)c2)o1)[C@@H](CC)N(C=O)OC(=O)c1ccccc1 | – | – |
| – | – | – | Metabolite_Detected | CCCCC[C@@H](C(=O)NCNC(=O)c1ccc(-c2cc(OCC)cc(P(=O)(O)O)c2)o1)[C@@H](CC)N(C=O)OC(=O)c1ccc(OC)cc1 | < 3980 nM | IC50 [2]: < 1000 nM |
| > 10% | < 80% | Metabolite_Detected | – | CCCCC[C@@H](C(=O)NCNC(=O)c1ccc(-c2ccc(C(=O)N[C@@H](CC(=O)O)C(=O)O)c(OCC(=O)O)c2)o1)[C@@H](CC)N(C=O)OC(=O)c1cccnc1 | < 3980 nM | – |
| > 10% | < 80% | – | – | CCCCC[C@@H](C(=O)NCNC(=O)c1ccc(-c2ccc(C(=O)N[C@@H](CC(=O)O)C(=O)O)c(OCC)c2)o1)[C@@H](CC)N(C=O)OC(=O)Cc1ccccc1 | – | Drug metabolism [3]: Metabolite_Detected |
| – | – | – | – | CCCCC[C@@H](C(=O)NCNC(=O)c1ccc(-c2ccc(C(=O)OCC)cc2)o1)[C@@H](CC)N(O)C=O | 398 to 3980 nM | IC50 [8]: 126 to 316 nM; IC50 (Tolloid-like protein 1): 251 to 398 nM; IC50 (Tolloid-like protein 2): 398 to 794 nM |
| – | – | – | – | CCCCC[C@@H](C(=O)NCNC(=O)c1ccc(-c2ccc(C(=O)OCCN(C)C)cc2)o1)[C@@H](CC)N(O)C=O | 398 to 3980 nM | IC50 [8]: 126 to 316 nM; IC50 (Tolloid-like protein 1): 251 to 398 nM; IC50 (Tolloid-like protein 2): 398 to 794 nM |
| > 10% | < 80% | – | – | CCCCC[C@@H](C(=O)NCNC(=O)c1ccc(-c2ccc(C(=O)N[C@@H](CC(=O)O)C(=O)O)c(OCC)c2)o1)[C@@H](CC)N(C=O)OC(=O)c1ccccc1 | < 3980 nM | Drug metabolism [3]: Metabolite_Detected |
| – | – | – | – | CCCCC[C@@H](C(=O)NCNC(=O)c1ccc(-c2ccc(C(=O)OCCCC)cc2)o1)[C@@H](CC)N(O)C=O | 398 to 3980 nM | IC50 [8]: 126 to 316 nM; IC50 (Tolloid-like protein 1): 251 to 398 nM; IC50 (Tolloid-like protein 2): 398 to 794 nM |
| > 10% | < 80% | – | Metabolite_Detected | CCCCC[C@@H](C(=O)NCNC(=O)c1ccc(-c2cc(OCC)cc(P(=O)(O)O)c2)o1)[C@@H](CC)N(C=O)OC(=O)Cc1ccccc1 | – | – |
| > 10% | – | Metabolite_Detected | – | CCCCC[C@@H](C(=O)NCNC(=O)c1ccc(-c2ccc(C(=O)N[C@@H](CC(=O)O)C(=O)O)c(OCC(=O)O)c2)o1)[C@@H](CC)N(C=O)OCOP(=O)(O)O | – | – |
| – | – | – | – | CCCCC[C@@H](C(=O)NCNC(=O)c1ccc(-c2cc(OCC)cc(P(=O)(Oc3ccccc3)Oc3ccccc3)c2)o1)[C@@H](CC)N(O)C=O | < 3980 nM | IC50 [8]: 126 to 316 nM |
| – | – | – | Metabolite_Detected | CCCCC[C@@H](C(=O)NCNC(=O)c1ccc(-c2cc(OCC)cc(P(=O)(O)O)c2)o1)[C@@H](CC)N(C=O)OC(=O)OC(C)(C)C | < 3980 nM | IC50 [2]: < 1000 nM |
| > 10% | < 80% | Metabolite_Detected | – | CCCCC[C@@H](C(=O)NCNC(=O)c1ccc(-c2ccc(C(=O)N[C@@H](CC(=O)O)C(=O)O)c(OCC(=O)O)c2)o1)[C@@H](CC)N(C=O)OC(=O)c1ccccc1C | – | – |
| > 10% | < 80% | – | Metabolite_Detected | CCCCC[C@@H](C(=O)NCNC(=O)c1ccc(-c2cc(OCC)cc(P(=O)(O)O)c2)o1)[C@@H](CC)N(C=O)OC(=O)c1ccccc1 | – | – |
